Earlier results as cited in patent US11833118B2 (priority 2016, dated 2023).

Experiments:
[1] = not given; remark: listed apart in the source

| Structure (SMILES) | crossing of the blood-brain barrier relative to Δ9THC (in vivo) | psychoactivity relative to Δ9THC (man) | Vapor Pressure at 25° C. [1] [mm Hg] | Vapor Pressure at 53.8° C. [1] [mm Hg] |
| --- | --- | --- | --- | --- |
| CCCCCc1cc(O)c2c(c1)OC(C)(C)[C@@H]1CCC(CO)=C[C@@H]21 [11-hydroxy-Δ9THC] | more rapidly crosses the blood-brain barrier | more psychoactive than Δ9THC |  |  |
| O [Water] |  |  | 23.8 | 111.4 |
| C=C(C)[C@H]1CC=C(C)CC1 [d-Limonene] |  |  | 2.0 | 10 |
